Consider 44 compounds from patent publication US11873291B2, “Quinoline cGAS antagonist compounds” (ImmuneSensor Therapeutics, Inc., priority 2020, dated 2024).

One may read the pIC50 as −log10 of the IC50, conventionally taken in molar units.

For assay [1], the system named is cGAS activity in Reporter THP1 cell line. Put plainly: Cellular assay to measure cGAS activity: ISRE-Gaussia luciferase reporter THP1 cells transfected with ISD. It is filed as cell-based. The following applies: Homo sapiens, THP-1, Table 4, Gaussia luciferase. Here is the method: Cellular assay to measure cGAS activity: Reporter THP1 cell line harboring a gene encoding Gaussia Luciferase under the control of 5 tandem repeats of interferon-stimulated response elements (ISRE) fused to an ISG54 minimal promoter was used to test inhibition of cGAS activity by synthetic compounds in human cells. These cells were plated on 96-well plates at 0.3×10^6/well and incubated with serial dilutions of compounds or DMSO for 5 min, followed by transfection of 2 μg/mL of ISD (Interferon Stimulatory DNA, a 45 bp DNA oligo) or mock transfected using lipofectamine 2000 (Life Technology) method, according to manufacturer's instructions. 16 hours later, 15 μL of the media from each well was transferred to a new plate, 50 μL of solution containing 50 mM Hepes-NaOH, pH 6.5, 50 mM NaCl, 10 mM EDTA, 1 μM of coelenterazine was added to each well and luminescence was measured immediately. Fold increase in luminescence compared to mock transfection was plotted against concentrations of each compound, and IC50 is calculated using Graphpad. To evaluate the specificity of a compound, the same procedure was performed except that cells were transfected with 2 μg/mL poly(I:C) or infected with Sendai Virus (SeV) at 50 Unit/mL, which are known to activate the RIG-I-MAVS pathway. A specific inhibitory compound should inhibit interferon induction by DNA but have minimal effect on poly(I:C) or Sendai virus induced interferon reporter gene expression.
The letter codes for cGAS IC50 include: A (<2 μM); B (2-10 μM); C (>10 μM).

The target in assay [2] is T1, recombinant human cGAS (aa147-522) (Homo sapiens, UniProt Q8N884).
T1 construct: recombinant human cGAS (aa147-522); His6-SUMO (cleaved yes); made in house; host or cells: E. coli BL21/pLys
The assay can be described thus: In vitro inhibition assay of cGAS activity (ATP consumption, KinaseGlo Max). Type of assay: biochemical. An outline of the steps: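 IC50 came from plotting % ATP consumption against log compound concentration, with leftover ATP detected by KinaseGlo Max chemiluminescence. Reactions ran 20 min at 37 °C with 1.5 μg/mL human cGAS (aa147-522), 6.6 μM ATP, 0.1 mM GTP and 0.01 mg/mL DNA at pH 7.5.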
For orientation: Kinase-Glo measures the ATP left after a reaction by luminescence.

Where [3] appears, read: Table 2, read-out: cGAS Inhibition Results IC50.
[4] abbreviates: Table 3, read-out: cGAS Inhibition Results IC50.

pIC50: −log10 of the molar value. Like-named read-outs stand apart in the source and are kept apart here.

T1 sequence (Q8N884 147-522): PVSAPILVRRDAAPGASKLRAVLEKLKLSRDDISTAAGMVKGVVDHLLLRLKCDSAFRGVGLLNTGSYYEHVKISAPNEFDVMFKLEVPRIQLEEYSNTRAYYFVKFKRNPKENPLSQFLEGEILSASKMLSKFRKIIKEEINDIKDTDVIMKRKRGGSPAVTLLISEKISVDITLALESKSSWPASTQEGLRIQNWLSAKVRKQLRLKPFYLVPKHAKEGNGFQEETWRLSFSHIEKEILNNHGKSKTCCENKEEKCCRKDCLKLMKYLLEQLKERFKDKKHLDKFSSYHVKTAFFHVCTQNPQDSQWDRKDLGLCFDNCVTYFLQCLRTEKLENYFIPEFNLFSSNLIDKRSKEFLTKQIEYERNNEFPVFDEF

For the compound `O=C(O)[C@@H]1CCCN1c1cc(-n2ccnc2)c2ccc(Cl)c(Cl)c2n1` [I-428], the figures for the negative-log IC50 (pIC50) in assay [1] and in assay [2] (setting [3]) were 5.00 to 5.70 and greater than 5.70, respectively.
Take `O=C(O)[C@@H]1[C@H](O)CCN1c1cc(-n2ccnc2)c2ccc(Cl)c(Cl)c2n1` [I-429]: the pIC50 in assay [1] was less than 5.00; in assay [2] (setting [3]), greater than 5.70.
Turning to `O=C(O)[C@@H]1CCCN1c1cc(-c2cn[nH]c2)c2ccc(Cl)c(Cl)c2n1` [I-435], the negative logarithm of the IC50 (pIC50) in assay [1] is 5.00 to 5.70; in assay [2] (setting [3]), greater than 5.70.
For `O=C(O)C[C@@H]1CCCN1c1cc(-n2ccnc2)c2ccc(Cl)c(Cl)c2n1` [I-443] the same measures were 5.00 to 5.70 and greater than 5.70.
Turning to `NC(=O)[C@@H]1CCCN1c1cc(-n2ccnc2)c2ccc(Cl)c(Cl)c2n1` [I-448], the pIC50 was less than 5.00 in assay [1] and greater than 5.70 in assay [2] (setting [3]).
For the compound `O=C(O)C[C@@H]1CCN1c1cc(-n2ccnc2)c2ccc(Cl)c(Cl)c2n1` [I-461], the pIC50 in assay [1] was less than 5.00; in assay [2] (setting [4]), greater than 5.70.
`Clc1ccc2c(-n3ccnc3)cc(N3CCCC3c3ncc[nH]3)nc2c1Cl` (stereo not shown) [I-467]: the values for the pIC50 in assay [1] and in assay [2] (setting [4]) were 5.00 to 5.70 and 4.52 to 5.70, respectively.
In the same order, the values of `O=C(O)[C@@H]1C[C@@H]2C[C@@H]2N1c1cc(-n2ccnc2)c2ccc(Cl)c(Cl)c2n1` [I-469] are greater than 5.70 and greater than 5.70.
In the same order, the values of `O=C(O)[C@@H]1[C@@H]2C[C@@H]2CN1c1cc(-n2ccnc2)c2ccc(Cl)c(Cl)c2n1` [I-470] are 5.00 to 5.70 and greater than 5.70.
In the same order, the values of `COC(=O)[C@@H]1[C@@H]2[C@H](CN1c1cc(-n3ccnc3)c3ccc(Cl)c(Cl)c3n1)C2(C)C` [I-471] are 5.00 to 5.70 and 4.52 to 5.70.
Regarding `CC1CCN(c2cc(-n3ccnc3)c3ccc(Cl)c(Cl)c3n2)C1C(=O)O` (stereo not shown) [I-473], the pIC50 in assay [1] and in assay [2] (setting [4]) was greater than 5.70 in each case.
As for `C[C@H]1C[C@@H](C(=O)O)N(c2cc(-n3ccnc3)c3ccc(Cl)c(Cl)c3n2)C1` [I-477], the values for the pIC50 in assay [1] and in assay [2] (setting [4]) were 5.00 to 5.70 and greater than 5.70, respectively.
As to `O=C(O)[C@@H]1CC2(CC2)CN1c1cc(-n2ccnc2)c2ccc(Cl)c(Cl)c2n1` [I-478], the pIC50 is 5.00 to 5.70 in assay [1] and greater than 5.70 in assay [2] (setting [4]).
In the case of `C[C@H]1CC[C@@H](C(=O)O)N1c1cc(-n2ccnc2)c2ccc(Cl)c(Cl)c2n1` [I-507], the pIC50 was 5.00 to 5.70 in assay [1] and greater than 5.70 in assay [2] (setting [4]).
On to `O=C(O)[C@@H]1[C@H]2CC[C@H](C2)N1c1cc(-n2ccnc2)c2ccc(Cl)c(Cl)c2n1` [I-516], for which the values for the pIC50 in assay [1] and in assay [2] (setting [4]) were less than 5.00 and greater than 5.70, respectively.
Take `COC(=O)[C@H]1CCCN1C(=O)C[C@@H]1CCCN1c1cc(-n2ccnc2)c2ccc(Cl)c(Cl)c2n1` [I-532]: the values for the pIC50 in assay [1] and in assay [2] (setting [4]) were 5.00 to 5.70 and 4.52 to 5.70, respectively.
As for `NC(=O)CNC(=O)C[C@@H]1CCCN1c1cc(-n2ccnc2)c2ccc(Cl)c(Cl)c2n1` [I-539], the pIC50 in assay [1] is 5.00 to 5.70; in assay [2] (setting [4]), greater than 5.70.
For the compound `O=C(OCC(F)(F)F)[C@@H]1[C@@H](O)CCN1c1cc(-n2ccnc2)c2ccc(Cl)c(Cl)c2n1` [I-556], the pIC50 in assay [1] and in assay [2] (setting [4]) was greater than 5.70 each time.
For the compound `COC(=O)[C@@H]1C[C@H](F)CN1c1cc(-n2ccnc2)c2ccc(Cl)c(Cl)c2n1` [I-575], the pIC50 in assay [1] is 5.00 to 5.70; in assay [2] (setting [4]) it was 4.52 to 5.70.
For `COC(=O)[C@@H]1CC2C[C@@H]2N1c1cc(-n2ccnc2)c2ccc(Cl)c(Cl)c2n1` (stereo partly shown) [I-576] the same measures were greater than 5.70 and greater than 5.70.
As for `COC(=O)[C@@H]1[C@@H]2C[C@@H]2CN1c1cc(-n2ccnc2)c2ccc(Cl)c(Cl)c2n1` [I-577], the pIC50 in assay [1] was 5.00 to 5.70; in assay [2] (setting [4]), 4.52 to 5.70.
For `COC(=O)C1C(C)CCN1c1cc(-n2ccnc2)c2ccc(Cl)c(Cl)c2n1` (stereo not shown) [I-578] the same measures were 5.00 to 5.70 and 4.52 to 5.70.
On to `COC(=O)[C@@H]1CC2(CC2)CN1c1cc(-n2ccnc2)c2ccc(Cl)c(Cl)c2n1` [I-582], for which the pIC50 in assay [1] and in assay [2] (setting [4]) was greater than 5.70 throughout.
For `COC(=O)[C@@H]1CC(C)(C)CN1c1cc(-n2ccnc2)c2ccc(Cl)c(Cl)c2n1` [I-583], the pIC50 in assay [1] is greater than 5.70; in assay [2] (setting [4]), 4.52 to 5.70.
For the compound `COC(=O)[C@@H]1C[C@@H](C)CN1c1cc(-n2ccnc2)c2ccc(Cl)c(Cl)c2n1` [I-585], the pIC50 in assay [1] was greater than 5.70; in assay [2] (setting [4]) it was 4.52 to 5.70.
Turning to `COC(=O)[C@@H]1C[C@H](C)CN1c1cc(-n2ccnc2)c2ccc(Cl)c(Cl)c2n1` [I-586], the pIC50 in assay [1] is greater than 5.70; in assay [2] (setting [4]), 4.52 to 5.70.
As to `COC(=O)[C@@H]1C[C@H]2C[C@H]2N1c1cc(-n2ccnc2)c2ccc(Cl)c(Cl)c2n1` [I-591], the pIC50 in assay [1] is 5.00 to 5.70; in assay [2] (setting [4]) it was 4.52 to 5.70.
For `COC(=O)[C@@H]1C[C@@H](F)CN1c1cc(-n2ccnc2)c2ccc(Cl)c(Cl)c2n1` [I-592] the same measures were 5.00 to 5.70 and 4.52 to 5.70.
In the same order, the values of `COC(=O)[C@@H]1CCCN1c1cc(-n2ccnc2)c2ccc(Cl)c(Cl)c2n1` [I-593] are 5.00 to 5.70 and 4.52 to 5.70.
Turning to `CCOC(=O)[C@@H]1CCCN1c1cc(-n2ccnc2)c2ccc(Cl)c(Cl)c2n1` [I-594], the pIC50 in assay [1] was 5.00 to 5.70; in assay [2] (setting [4]), 4.52 to 5.70.
With `CC(C)OC(=O)[C@@H]1CCCN1c1cc(-n2ccnc2)c2ccc(Cl)c(Cl)c2n1` [I-595], the pIC50 in assay [1] is 5.00 to 5.70; in assay [2] (setting [4]), 4.52 to 5.70.
With `COC(=O)[C@@H]1[C@@H](O)CCN1c1cc(-n2ccnc2)c2ccc(Cl)c(Cl)c2n1` [I-596], the pIC50 in assay [1] is greater than 5.70; in assay [2] (setting [4]) it was 4.52 to 5.70.
As for `COC(=O)[C@@H]1[C@H](O)CCN1c1cc(-n2ccnc2)c2ccc(Cl)c(Cl)c2n1` [I-597], the figures for the pIC50 in assay [1] and in assay [2] (setting [4]) were less than 5.00 and 4.52 to 5.70, respectively.
For `COC(=O)[C@@H]1[C@@H](O)CCN1c1cc(-c2cn[nH]c2)c2ccc(Cl)c(Cl)c2n1` [I-598] the same measures were greater than 5.70 and 4.52 to 5.70.
`CCOC(=O)[C@@H]1[C@@H](O)CCN1c1cc(-n2ccnc2)c2ccc(Cl)c(Cl)c2n1` [I-599]: the pIC50 in assay [1] was greater than 5.70; in assay [2] (setting [4]), 4.52 to 5.70.
Regarding `CC(C)OC(=O)[C@@H]1[C@@H](O)CCN1c1cc(-n2ccnc2)c2ccc(Cl)c(Cl)c2n1` [I-600], the values for the pIC50 in assay [1] and in assay [2] (setting [4]) were greater than 5.70 and 4.52 to 5.70, respectively.
For the compound `CCCCOC(=O)[C@@H]1[C@@H](O)CCN1c1cc(-n2ccnc2)c2ccc(Cl)c(Cl)c2n1` [I-601], the pIC50 in assay [1] was greater than 5.70; in assay [2] (setting [4]) it was 4.52 to 5.70.
As to `COC(=O)[C@@H]1[C@@H](OC(C)=O)CCN1c1cc(-n2ccnc2)c2ccc(Cl)c(Cl)c2n1` [I-642, methyl (2S,3S)-3-acetoxy-1-(7,8-dichloro-4-(1H-imidazol-1-yl)quinolin-2-yl)pyrrolidine-2-carboxylate], the pIC50 in assay [1] was greater than 5.70; in assay [2] (setting [4]) it was 4.52 to 5.70.
In the case of `CC(C)(C)OC(=O)[C@@H]1[C@@H](O)CCN1c1cc(-n2ccnc2)c2ccc(Cl)c(Cl)c2n1` [I-645, tert-butyl (2S,3S)-1-(7,8-dichloro-4-(1H-imidazol-1-yl)quinolin-2-yl)-3-hydroxypyrrolidine-2-carboxylate], the pIC50 in assay [1] was greater than 5.70; in assay [2] (setting [4]), 4.52 to 5.70.
Regarding `COC(=O)[C@@H]1[C@@H](F)CCN1c1cc(-n2ccnc2)c2ccc(Cl)c(Cl)c2n1` [I-649, methyl (2R,3S)-1-(7,8-dichloro-4-(1H-imidazol-1-yl)quinolin-2-yl)-3-fluoropyrrolidine-2-carboxylate], the results for the pIC50 in assay [1] and in assay [2] (setting [4]) were 5.00 to 5.70 and 4.52 to 5.70, respectively.
In the same order, the values of `COC(=O)[C@@H]1[C@H](F)CCN1c1cc(-n2ccnc2)c2ccc(Cl)c(Cl)c2n1` [I-650] are 5.00 to 5.70 and 4.52 to 5.70.
Take `O=C(OC(C(F)(F)F)C(F)(F)F)[C@@H]1[C@@H](O)CCN1c1cc(-n2ccnc2)c2ccc(Cl)c(Cl)c2n1` [I-663]: the pIC50 in assay [1] and in assay [2] (setting [4]) was greater than 5.70 throughout.
For `O=C(O)CCOC[C@@H]1CCCN1c1cc(-n2ccnc2)c2ccc(Cl)c(Cl)c2n1` [I-664, (S)-3-((1-(7,8-dichloro-4-(1H-imidazol-1-yl)quinolin-2-yl)pyrrolidin-2-yl)methoxy)propanoic acid], the pIC50 in assay [1] and in assay [2] (setting [4]) was greater than 5.70 throughout.
As to `COC(=O)CCOC[C@@H]1CCCN1c1cc(-n2ccnc2)c2ccc(Cl)c(Cl)c2n1` [I-665, methyl (S)-3-((1-(7,8-dichloro-4-(1H-imidazol-1-yl)quinolin-2-yl)pyrrolidin-2-yl)methoxy)propanoate], the pIC50 in assay [1] and in assay [2] (setting [4]) was greater than 5.70 throughout.
